Data as given in PubChem BioAssay AID1117334 (Cheminformatics & Chemogenomics Research Group (CCRG), …, 2015).
Active and inactive are the calls of the source. How the calls were made is not given here.

System: Colo320 viability, CellTiter-Glo luminescence
Experiment: cytotoxicity toward Colo320 cells – cell-based, CellTiter-Glo luminescence, IC50, dose response (AID 1117334)

Row | SMILES | IC50
1 | Cc1ccc([N+](=O)[O-])[c]2c1[O][Hg]2 | 935 nM
2 | O=C(O)C1(C(=O)O)CCC1.[NH2-].[NH2-].[Pt+2] | > 20000 nM (inactive)
3 | CO[C@@]12[C@H](COC(N)=O)C3=C(C(=O)C(C)=C(N)C3=O)N1C[C@@H]1N[C@@H]12 | 12600 nM (inactive)
4 | CC(C)n1c(/C=C/[C@@H](O)C[C@@H](O)CC(=O)O)c(-c2ccc(F)cc2)c2ccccc21 | 13000 nM (inactive)
5 | CC(=O)[O][Hg][c]1ccccc1 | 1300 nM
6 | Cn1cnc([N+](=O)[O-])c1Sc1ncnc2nc[nH]c12 | 10300 nM (inactive)
7 | CCCCCCCCCCCCCC[N+](C)(C)C | 2520 nM
8 | CCN(CC)CCCC(C)Nc1c2ccc(Cl)cc2nc2ccc(OC)cc12 (stereo unspecified) | 8440 nM (inactive)
9 | O=C1[O][Bi][O]c2ccccc21 | > 20000 nM (inactive)
10 | OCCN1CCN(CC/C=C2/c3ccccc3Sc3ccc(C(F)(F)F)cc32)CC1 | 2310 nM
11 | O=Cc1ccc(O)c(O)c1O | 9080 nM (inactive)
